From patent US20250296971A1, “GASTRIC INHIBITORY PEPTIDE RECEPTOR LIGANDS” (priority 2021, published 2025)
*1 amine or outer side, *2 acyl side, *3 side chain or, on linkers, in order; H or OH if unused. Where a SMILES comes first, the peptide text is derived from it. Bridges are numbered along the chain shown (N, C = ends). Side-chain parts run from the residue outwards. [ ]: non-standard residue; d: D form. The star is where a group is joined. X2 = O=C(O)CN1CCN(CC(=O)O)CCN(CC(=O)N[C@@H](CCC(=O)NC[C@H](O)[C@@H](O)[C@H](O)[C@H](O)CO)C(=O)*)CCN(CC(=O)O)CC1; NH(1-deoxy-D-glucityl) = OC[C@@H](O)[C@@H](O)[C@H](O)[C@@H](O)CN*; DOTA = O=C(O)CN1CCN(CC(=O)O)CCN(CC(=O)*)CCN(CC(=O)O)CC1; Trp(5-Cl) = N[C@@H](Cc1c[nH]c2ccc(Cl)cc12)C(=O)O; Pyridine(2,6-diCH2) = c1cc(C[*:1])nc(C[*:2])c1; Pro(4R-NH2) = N[C@H]1CN[C@H](C(=O)O)C1; Glutaryl = O=C(CCCC(=O)[*:2])[*:1]; PEG6 = NCCOCCOCCOCCOCCOCCOCCC(=O)O; Hyp = O=C(O)[C@@H]1C[C@@H](O)CN1; X1 = O=C(CN1CCC(N[*:1])CC1)[*:2]; Api = NC1(C(=O)O)CCNCC1; Thp = NC1(C(=O)O)CCOCC1; AEEA = NCCOCCOCC(=O)O

Target: T1, GIPR (CHO-K1-hGIPR cells) (Homo sapiens, UniProt P48546)
T1 construct: host or cells: CHO-K1
T1 sequence (P48546 22-466): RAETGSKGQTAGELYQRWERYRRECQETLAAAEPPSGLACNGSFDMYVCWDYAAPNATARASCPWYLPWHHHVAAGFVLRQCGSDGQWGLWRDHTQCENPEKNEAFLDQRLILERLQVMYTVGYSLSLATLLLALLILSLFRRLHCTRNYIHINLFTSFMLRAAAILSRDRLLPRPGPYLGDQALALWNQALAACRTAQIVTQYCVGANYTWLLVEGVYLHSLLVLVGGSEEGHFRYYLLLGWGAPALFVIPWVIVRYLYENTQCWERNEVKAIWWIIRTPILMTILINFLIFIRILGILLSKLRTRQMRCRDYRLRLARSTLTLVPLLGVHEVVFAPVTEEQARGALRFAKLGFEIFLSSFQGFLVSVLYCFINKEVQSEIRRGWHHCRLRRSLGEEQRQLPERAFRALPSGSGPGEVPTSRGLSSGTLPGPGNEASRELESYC
Experiment: FACS binding assay
Conditions: competition with 20 nM GIP-057, 4° C., 1 hour, read-out: pIC50 Category (converted)
How it was run: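 CHO-K1 cells stably expressing human GIPR were detached with Accutase, suspended at 500.000 cells per mL in PBS with 1% FCS, and washed ice-cold. Bound peptide was detected with 1 μg/mL APC-streptavidin for 30 min on ice.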

| Compound | IC50 [µM] |
| --- | --- |
| CC[C@H](C)[C@@H]1NC(=O)[C@H](CC(C)C)NC(=O)C2(CCOCC2)NC(=O)[C@@H](NC(=O)[C@@H](CC(C)C)NC(=O)[C@H](CCC(=O)O)NC(=O)[C@@H]2C[C@@H](N)CN2C(=O)[C@H](Cc2c[nH]c3ccc(Cl)cc23)NC(=O)[C@H](Cc2c[nH]c3ccccc23)NC(=O)[C@H](CC(=O)O)NC(=O)[C@@H](CCC(=O)NC[C@H](O)[C@@H](O)[C@H](O)[C@H](O)CO)NC(=O)CCOCCOCCOCCOCCOCCOCCNC(=O)CN2CCN(CC(=O)O)CCN(CC(=O)O)CCN(CC(=O)O)CC2)CSCc2cccc(n2)CSC[C@@H](C(=O)NC2CCN(CC(=O)N[C@H](CCC(=O)NC[C@H](O)[C@@H](O)[C@H](O)[C@H](O)CO)C(N)=O)CC2)NC1=O [GIP-037, DOTA-PEG6-glu(AGLU)-Asp-Trp-5Clw-Tap-Glu-leu-[Cys(2Lut)-Thp-Leu-Ile-Cys]-APAc-glu(AGLU)-NH2] ({DOTA-PEG6}-[dE](NH(1-deoxy-D-glucityl))DW[Trp(5-Cl)][Pro(4R-NH2)]E[dL]C[Thp]LIC[X1][dE](NH(1-deoxy-D-glucityl))-NH2; linker 8-12 via Pyridine(2,6-diCH2)) | < 0.01 |
| CC[C@H](C)[C@@H]1NC(=O)[C@H](CC(C)C)NC(=O)C2(CCN(C(=O)CN3CCN(CC(=O)O)CCN(CC(=O)O)CCN(CC(=O)O)CC3)CC2)NC(=O)[C@@H](NC(=O)[C@@H](CC(C)C)NC(=O)[C@H](CCC(=O)O)NC(=O)[C@@H]2C[C@@H](N)CN2C(=O)[C@H](Cc2c[nH]c3ccc(Cl)cc23)NC(=O)[C@H](Cc2c[nH]c3ccccc23)NC(=O)[C@H](CC(=O)O)NC(=O)CCCC(=O)NC[C@H](O)[C@@H](O)[C@H](O)[C@H](O)CO)CSCc2cccc(n2)CSC[C@H](C(=O)NC2CCN(CC(=O)N[C@H](CCC(=O)NC[C@H](O)[C@@H](O)[C@H](O)[C@H](O)CO)C(N)=O)CC2)NC1=O [GIP-038, AGLU-Glutar-Asp-Trp-5Clw-Tap-Glu-leu-[Cys(2Lut)-Apc(DOTA)-Leu-Ile-cys]-APAc-glu(AGLU)-NH2] ({NH(1-deoxy-D-glucityl)-Glutaryl}-DW[Trp(5-Cl)][Pro(4R-NH2)]E[dL]C[Api](DOTA)LI[dC][X1][dE](NH(1-deoxy-D-glucityl))-NH2; linker 7-11 via Pyridine(2,6-diCH2)) | < 0.01 |
| CC[C@H](C)[C@@H]1NC(=O)[C@H](CC(C)C)NC(=O)C2(CCN(C(=O)CN3CCN(CC(=O)O)CCN(CC(=O)O)CCN(CC(=O)O)CC3)CC2)NC(=O)[C@@H](NC(=O)[C@@H](CC(C)C)NC(=O)[C@H](CCC(=O)O)NC(=O)[C@@H]2C[C@@H](O)CN2C(=O)[C@H](Cc2c[nH]c3ccc(Cl)cc23)NC(=O)[C@H](Cc2c[nH]c3ccccc23)NC(=O)[C@H](CC(=O)O)NC(=O)CN2CCC(NC(=O)CCCC(=O)NC[C@H](O)[C@@H](O)[C@H](O)[C@H](O)CO)CC2)CSCc2cccc(n2)CSC[C@@H](C(=O)N[C@H](CCCCNC(=O)CCOCCOCCOCCOCCOCCOCCOCCOCCOCCOCCOCCOCCOCCOCCOCCOCCOCCOCCOCCOCCOCCOCCOCCOCCOCCOCCOCCOCCOCCOCCOCCOCCOCCOCCOCCOCCOC)C(N)=O)NC1=O [GIP-039, AGLU-Glutar-APAc-Asp-Trp-5Clw-Hyp-Glu-leu-[Cys(2Lut)-Apc(DOTA)-Leu-Ile-Cys]-lys(MeO36PEG)-NH2] | 0.01 to 0.0794 |
| CCOCCOCCOCCOCCOCCOCCOCCOCCOCCOCCOCCOCCOCCOCCOCCOCCOCCOCCOCCOCCOCCOCCOCCOCCOCCOCCOCCOCCOCCOCCOCCOCCOCCOCCOCCOCCOCC(=O)NC1CCN(CC(=O)N[C@@H](CC(=O)O)C(=O)N[C@@H](Cc2c[nH]c3ccccc23)C(=O)N[C@@H](Cc2c[nH]c3ccc(Cl)cc23)C(=O)N2C[C@H](O)C[C@H]2C(=O)N[C@@H](CCC(=O)O)C(=O)N[C@H](CC(C)C)C(=O)N[C@H]2CSCc3cccc(n3)CSC[C@@H](C(=O)NC3CCN(CC(=O)N[C@H](CCC(=O)NC[C@H](O)[C@@H](O)[C@H](O)[C@H](O)CO)C(N)=O)CC3)NC(=O)[C@H]([C@@H](C)CC)NC(=O)[C@H](CC(C)C)NC(=O)C3(CCN(C(=O)CN4CCN(CC(=O)O)CCN(CC(=O)O)CCN(CC(=O)O)CC4)CC3)NC2=O)CC1 [GIP-041, MeO36PEG-APAc-Asp-Trp-5Clw-Hyp-Glu-leu-[Cys(2Lut)-Apc(DOTA)-Leu-Ile-Cys]-APAc-glu(AGLU)-NH2] | 0.01 to 0.0794 |
| CCOCCOCCOCCOCCOCCOCCOCCOCCOCCOCCOCCOCCOCCOCCOCCOCCOCCOCCOCCOCCOCCOCCOCCOCCOCCOCCOCCOCCOCCOCCOCCOCCOCCOCCOCCOCCOCC(=O)NC1CCN(CC(=O)N[C@@H](CC(=O)O)C(=O)N[C@@H](Cc2c[nH]c3ccccc23)C(=O)N[C@@H](Cc2c[nH]c3ccc(Cl)cc23)C(=O)N2C[C@H](N)C[C@H]2C(=O)N[C@@H](CCC(=O)O)C(=O)N[C@H](CC(C)C)C(=O)N[C@H]2CSCc3cccc(n3)CSC[C@@H](C(=O)NC3CCN(CC(=O)N[C@H](CCC(=O)NC[C@H](O)[C@@H](O)[C@H](O)[C@H](O)CO)C(N)=O)CC3)NC(=O)[C@H]([C@@H](C)CC)NC(=O)[C@H](CC(C)C)NC(=O)C3(CCN(C(=O)CN4CCN(CC(=O)O)CCN(CC(=O)O)CCN(CC(=O)O)CC4)CC3)NC2=O)CC1 [GIP-042, MeO36PEG-APAc-Asp-Trp-5Clw-Tap-Glu-leu-[Cys(2Lut)-Apc(DOTA)-Leu-Ile-Cys]-APAc-glu(AGLU)-NH2] | 0.01 to 0.0794 |
| CC[C@H](C)[C@@H]1NC(=O)[C@H](CC(C)C)NC(=O)C2(CCN(C(=O)[C@H](CCC(=O)NC[C@H](O)[C@@H](O)[C@H](O)[C@H](O)CO)NC(=O)CN3CCN(CC(=O)O)CCN(CC(=O)O)CCN(CC(=O)O)CC3)CC2)NC(=O)[C@@H](NC(=O)[C@@H](CC(C)C)NC(=O)[C@H](CCC(=O)O)NC(=O)[C@@H]2C[C@@H](O)CN2C(=O)[C@H](Cc2c[nH]c3ccc(Cl)cc23)NC(=O)[C@H](Cc2c[nH]c3ccccc23)NC(=O)[C@H](CC(=O)O)NC(=O)CN2CCC(NC(=O)CCCC(=O)NC[C@H](O)[C@@H](O)[C@H](O)[C@H](O)CO)CC2)CSCc2cccc(n2)CSC[C@@H](C(=O)NC2CCN(CC(=O)N[C@H](CCC(=O)NC[C@H](O)[C@@H](O)[C@H](O)[C@H](O)CO)C(N)=O)CC2)NC1=O [GIP-043, AGLU-Glutar-APAc-Asp-Trp-5Clw-Hyp-Glu-leu-[Cys(2Lut)-Apc(DOTA-glu(AGLU))-Leu-Ile-Cys]-APAc-glu(AGLU)-NH2] ({NH(1-deoxy-D-glucityl)-Glutaryl}-[X1]DW[Trp(5-Cl)][Hyp]E[dL]C[Api](X2)LIC[X1][dE](NH(1-deoxy-D-glucityl))-NH2; linker 8-12 via Pyridine(2,6-diCH2)) | < 0.01 |
| CC[C@H](C)[C@@H]1NC(=O)[C@H](CC(C)C)NC(=O)C2(CCN(C(=O)CCCC(=O)NC[C@H](O)[C@@H](O)[C@H](O)[C@H](O)CO)CC2)NC(=O)[C@@H](NC(=O)[C@@H](CC(C)C)NC(=O)[C@H](CCC(=O)O)NC(=O)[C@@H]2C[C@@H](N)CN2C(=O)[C@H](Cc2c[nH]c3ccc(Cl)cc23)NC(=O)[C@H](Cc2c[nH]c3ccccc23)NC(=O)[C@H](CC(=O)O)NC(=O)[C@@H](CCC(=O)NC[C@H](O)[C@@H](O)[C@H](O)[C@H](O)CO)NC(=O)COCCOCCNC(=O)CN2CCN(CC(=O)O)CCN(CC(=O)O)CCN(CC(=O)O)CC2)CSCc2cccc(n2)CSC[C@@H](C(=O)NC2CCN(CC(=O)N[C@H](CCC(=O)NC[C@H](O)[C@@H](O)[C@H](O)[C@H](O)CO)C(N)=O)CC2)NC1=O [GIP-044, DOTA-02Oc-glu(AGLU)-Asp-Trp-5Clw-Tap-Glu-leu-[Cys(2Lut)-Apc(AGLU-Glutar)-Leu-Ile-Cys]-APAc-glu(AGLU)-NH2] ({DOTA-AEEA}-[dE](NH(1-deoxy-D-glucityl))DW[Trp(5-Cl)][Pro(4R-NH2)]E[dL]C[Api]([Glutaryl-NH(1-deoxy-D-glucityl)])LIC[X1][dE](NH(1-deoxy-D-glucityl))-NH2; linker 8-12 via Pyridine(2,6-diCH2)) | < 0.01 |
